Test results from patent US20180344715A1, “WNT/BETA-CATENIN SIGNAL TRANSDUCTION INHIBITORS AND THEIR USE IN TREATMENT OR PREVENTION OF DISEASES AND CONDITIONS LINKED WITH SAID TRANSDUCTION” (BERGEN TEKNOLOGIOVERFORING AS, priority 2015, published 2018).

Columns and labels:
[1] = tested on: β-catenin; test: Western blotting of β-catenin in SW480 cells; assay type: cell-based
Description: Culture cells were lysed in RIPA buffer (50 mM Tris-HCl, pH 7.4, 150 mM NaCl, 1% NP-40, 0.5% sodium deoxycholate, 0.1% SDS, 1 mM EDTA) containing freshly added protease inhibitors (Roche, 11836153001). Protein lysates were resolved in Novex 10% BisTris MiniGels (Life technologies, NP0303BOX) and transferred onto PVDF membranes with Pierce 1-Step Transfer Buffer (Thermo Fisher Scientific, 84731). Membranes were developed by using Pierce Fast Western Blot Kit with ECL Substrate (Thermo Fisher Scientific, 35050) and primary antibodies (β-catenin, ab16051, 1:2000 Abcam; GAPDH, ab181602, clone EPR16891, 1:20000, Abcam; hemagglutinin, ab9134, 1:2000, Abcam; FLAG, ab1162, 1:1000, Abcam; ubiquitin, ab7254, clone Ubi-1, 1:5000, Abcam; SHPRH, ab80129, 1:1000, Abcam; non-phospho-(active) β-catenin (Ser33/37/Thr41), 4270, 1:1000, Cell Signaling Technology; phospho-3-catenin (Ser33/37/Thr41), 9561, 1:1000, Cell Signaling Technology; β-catenin-Thr41/Ser45, 9565, 1:1000, Cell Signaling Technology; MED23, BD550429, clone D27-1805, 1:500, BD Biosciences). Proteins were visualized and captured by a ChemiDOC XRS system and Quantity One software (Bio-Rad Laboratories).

[2] = target: T1, MED23 (Homo sapiens, UniProt Q9ULK4); test: Cellular thermal shift assay (CETSA), MED23; assay type: binding; conditions: SW480, 10 μM
T1 construct: endogenous in cells; host or cells: SW480
T1 sequence (Q9ULK4 1-1368): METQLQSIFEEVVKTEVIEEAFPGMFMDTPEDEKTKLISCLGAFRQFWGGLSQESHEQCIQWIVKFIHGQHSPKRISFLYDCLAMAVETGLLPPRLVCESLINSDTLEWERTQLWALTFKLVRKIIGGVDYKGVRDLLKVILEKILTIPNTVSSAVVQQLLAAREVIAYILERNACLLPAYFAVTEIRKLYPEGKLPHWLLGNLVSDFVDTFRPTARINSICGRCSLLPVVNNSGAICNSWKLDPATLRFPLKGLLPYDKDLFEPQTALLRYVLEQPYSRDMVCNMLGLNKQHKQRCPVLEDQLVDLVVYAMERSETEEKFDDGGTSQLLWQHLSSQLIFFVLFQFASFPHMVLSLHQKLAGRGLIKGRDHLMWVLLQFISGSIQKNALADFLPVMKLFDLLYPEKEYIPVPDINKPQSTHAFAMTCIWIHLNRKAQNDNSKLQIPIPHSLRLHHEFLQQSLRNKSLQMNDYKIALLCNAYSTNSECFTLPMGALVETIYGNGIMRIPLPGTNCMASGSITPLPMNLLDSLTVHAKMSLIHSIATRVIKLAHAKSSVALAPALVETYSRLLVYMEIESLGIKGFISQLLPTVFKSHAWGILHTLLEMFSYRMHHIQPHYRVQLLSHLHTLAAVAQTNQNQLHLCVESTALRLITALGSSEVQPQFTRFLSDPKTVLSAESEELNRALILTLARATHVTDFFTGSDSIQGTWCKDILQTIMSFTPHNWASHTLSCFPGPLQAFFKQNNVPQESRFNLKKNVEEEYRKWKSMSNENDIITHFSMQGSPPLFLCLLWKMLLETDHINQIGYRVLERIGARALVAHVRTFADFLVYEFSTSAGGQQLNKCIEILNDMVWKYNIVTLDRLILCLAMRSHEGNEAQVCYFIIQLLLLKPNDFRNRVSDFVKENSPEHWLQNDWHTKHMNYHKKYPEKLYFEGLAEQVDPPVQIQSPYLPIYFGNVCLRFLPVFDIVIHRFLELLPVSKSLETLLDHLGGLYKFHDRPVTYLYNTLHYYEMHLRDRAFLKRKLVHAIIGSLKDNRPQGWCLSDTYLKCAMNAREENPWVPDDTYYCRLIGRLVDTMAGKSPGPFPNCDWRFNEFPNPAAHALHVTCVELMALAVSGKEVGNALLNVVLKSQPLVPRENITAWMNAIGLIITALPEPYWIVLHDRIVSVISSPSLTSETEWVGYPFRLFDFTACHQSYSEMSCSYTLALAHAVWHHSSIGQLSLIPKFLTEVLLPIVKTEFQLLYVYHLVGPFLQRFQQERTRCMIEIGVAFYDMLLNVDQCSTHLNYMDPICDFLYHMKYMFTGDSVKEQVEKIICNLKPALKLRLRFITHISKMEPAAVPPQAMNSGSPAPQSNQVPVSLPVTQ
Description: CETSA in intact cells was performed according to the protocol previously described (Martinez Molina, D. et al., 2013, Science 341, 84-87). Briefly, SW480 cells were seeded equally in 2 T75 flasks and allowed to reach 80% confluence one day after. […] After trypsinization and PBS wash, cells were resuspended in 450 μl PBS containing freshly added protease inhibitors and equally divided between 7 tubes. Cells in each tube were heated at indicated temperatures for 3 minutes and kept at room temperature for 3 minutes. Heated cells were lysed by 3 cycles of freezing in liquid nitrogen (1 minute) and thawing in room temperature water (1 minute). The cell lysates were centrifuged at 20,000 g for 20 minutes at 4° C. The soluble fractions were isolated for Western blotting analysis.

[3] = target: T2, MED23 and β-catenin (Homo sapiens, UniProt Q9ULK4); test: Co-immunoprecipitation of MED23 and β-catenin; assay type: cell-based; conditions: SW480, 5 μM, 4 hours
T2 construct: endogenous in cells; host or cells: SW480
T2 sequence (Q9ULK4 1-1368): T1 sequence (Q9ULK4 1-1368)
Description: Co-IP was done following the protocol of Dynabeads Co-Immunoprecipitation Kit (Life Technologies, 14321D). […] After saving 2% samples for input control, cell lysates were equally divided between 3 tubes, incubated with 3 mg Dynabeads and 21 μg mouse IgG (15381, Sigma), primary antibody against MED23 (BD550429, clone D27-1805, BD Biosciences) and β-catenin (ab22656, clone 12F7, Abcam), respectively. Input controls and proteins pulled down with individual antibodies were examined by Western blotting.

SMILES: CNC(=O)c1ccccc1Sc1ccc2c(/C=C/c3ccccn3)n[nH]c2c1 [axitinib, N-Methyl-2-[[3-[(E)-2-pyridin-2-ylethenyl]-1H-indazol-6-yl]sulfanyl]benzamide]
- phosphorylated and non-phospho (active) β-catenin (ABC) ([1]; APC mutant SW480 cells, 24 hours): reduced
- β-catenin level (Western blots) ([1]; SW480, dose course 24 hours, time course at 5 μM): dose and time dependent decrease
- direct binding in intact living cells [2]: confirmed
- endogenous association of MED23 and β-catenin [3]: disrupted
